Drawing on ChEMBL document CHEMBL5226297, “Small-Molecule Drug Discovery in Triple Negative Breast Cancer: Current Situation and Future Directions” (J Med Chem, 2021), this text covers IC50 and EC50 for 15 compounds.

Experiment [1] addresses Proto-oncogene tyrosine-protein kinase Src (Homo sapiens, UniProt P12931). Nature of the experiment: Inhibition of human SRC by microplate reader analysis.
In experiment [2] the test system is MDA-MB-231. The experiment in a line: Anticancer activity against human MDA-MB-231 cells assessed as cell growth inhibition incubated for 3 to 5 days by MTT assay. The experiment is classed as functional, cell-based. In general terms: Formazan colour is commonly taken as a measure of viable cells.
The subject of experiment [3] is Hs-578T. The experiment in a line: Anticancer activity against human Hs-578T cells assessed as cell growth inhibition incubated for 24 hrs by ALDEFLUOR assay. Type of experiment: functional, cell-based.
For experiment [4], the system named is MDA-MB-231. The experiment in a line: cells. The settings on record: Homo sapiens, MDA-MB-231, 24 h.
Experiment [5] deals with MDA-MB-468. The experiment in a line: Anticancer activity against human MDA-MB-468 cells assessed as cell growth inhibition by MTT assay. Type of experiment: functional, cell-based.
In experiment [6] the test system is HCC38. Nature of the experiment: Anticancer activity against human HCC38 cells assessed as cell growth inhibition by MTT assay. Type of experiment: functional, cell-based.
In experiment [7] the test system is MDA-MB-231. Nature of the experiment: cells. The settings on record: Homo sapiens.
Experiment [8] can be described thus: Inhibition of cIAP1 (unknown origin). Details: species or system Homo sapiens.
The next experiment deals with BT-20. Nature of the experiment: Anticancer activity against human BT-20 cells assessed as cell growth inhibition incubated for 5 days by sulforhodamine B staining based assay. The experiment is classed as functional. Conditions: BT-20, 120 h. In general terms: In SRB staining, fixed cells bind dye roughly in proportion to their protein.
Another experiment deals with SUM-159-PT. Nature of the experiment: Anticancer activity against human SUM159 cells assessed as cell growth inhibition incubated for 5 days by sulforhodamine B staining based assay. The experiment is classed as functional. Conditions: 120 h.
The test system of experiment [9] is HCC1806. The experiment in a line: Anticancer activity against human HCC1806 cells assessed as cell growth inhibition incubated for 5 days by sulforhodamine B staining based assay. Type of experiment: functional. Conditions: HCC1806, 120 h.
The subject of experiment [10] is HCC1937. Nature of the experiment: Anticancer activity against human HCC1937 cells assessed as cell growth inhibition incubated for 5 days by sulforhodamine B staining based assay. The experiment is classed as functional. Conditions: HCC1937, 120 h.
For the next experiment, the system named is SUM149PT. Nature of the experiment: Anticancer activity against human SUM149 cells assessed as cell growth inhibition incubated for 5 days by sulforhodamine B staining based assay. Type of experiment: functional. Conditions: 120 h.
The subject of experiment [11] is MDA-MB-231. The experiment in a line: Anticancer activity against human MDA-MB-231 cells assessed as cell growth inhibition incubated for 5 days by sulforhodamine B staining based assay. Type of experiment: functional. The settings on record: MDA-MB-231, 120 h.
For the next experiment, the system named is HCC70. The experiment in a line: Anticancer activity against human HCC70 cells assessed as cell growth inhibition incubated for 5 days by sulforhodamine B staining based assay. The experiment is classed as functional. Conditions: HCC70, 120 h.
The test system of experiment [12] is HCC1806. The experiment in a line: Anticancer activity against human HCC1806 cells assessed as cell growth inhibition incubated for 4 to 10 days by MTT assay. Type of experiment: functional, cell-based.
For experiment [13], the system named is BT-549. Nature of the experiment: Anticancer activity against human BT-549 cells assessed as cell growth inhibition incubated for 4 to 10 days by MTT assay. Type of experiment: functional, cell-based.
Experiment [14] deals with MDA-MB-231. Nature of the experiment: Anticancer activity against human MDA-MB-231 cells assessed as cell growth inhibition incubated for 4 to 10 days by MTT assay. Type of experiment: functional, cell-based.
Experiment [15] deals with Hs-578T. Nature of the experiment: Anticancer activity against human Hs-578T cells assessed as cell growth inhibition incubated for 4 to 10 days by MTT assay. The experiment is classed as functional, cell-based.
Experiment [16] has as its system HCC38. Nature of the experiment: Anticancer activity against human HCC38 cells assessed as cell growth inhibition incubated for 4 to 10 days by MTT assay. Type of experiment: functional, cell-based.
The test system of another experiment is SUM185PE. The experiment in a line: Anticancer activity against human SUM185PE cells assessed as cell growth inhibition incubated for 6 days by CellTiter96 analysis. The experiment is classed as functional, cell-based. Conditions: 144 h.
Experiment [17] deals with N-lysine methyltransferase SMYD2 (Homo sapiens, UniProt Q9NRG4). The experiment in a line: Inhibition of human SMYD2 by western blot assay. For orientation: A western blot detects proteins with antibodies after separation by electrophoresis.
N-lysine methyltransferase SMYD2, sequence (Q9NRG4 whole entry): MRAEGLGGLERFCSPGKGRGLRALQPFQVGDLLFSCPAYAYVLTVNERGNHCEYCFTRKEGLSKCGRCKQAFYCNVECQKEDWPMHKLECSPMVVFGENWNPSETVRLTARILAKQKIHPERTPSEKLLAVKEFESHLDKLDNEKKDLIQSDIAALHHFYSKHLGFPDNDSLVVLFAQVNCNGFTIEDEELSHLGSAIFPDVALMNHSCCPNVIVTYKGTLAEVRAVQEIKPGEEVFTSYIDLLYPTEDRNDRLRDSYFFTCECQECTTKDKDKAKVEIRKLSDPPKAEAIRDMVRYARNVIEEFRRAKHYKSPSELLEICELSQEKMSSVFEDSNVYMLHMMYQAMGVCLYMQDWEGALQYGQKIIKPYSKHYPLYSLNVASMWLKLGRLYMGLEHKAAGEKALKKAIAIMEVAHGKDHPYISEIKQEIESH
Experiment [18] deals with MDA-MB-231. The experiment in a line: Anticancer activity against human MDA-MB-231 cells assessed as cell growth inhibition incubated for 72 hrs by CCK-8 assay. Type of experiment: functional, cell-based. Conditions: MDA-MB-231, 72 h.
The subject of experiment [19] is BT-549. Nature of the experiment: Anticancer activity against human BT-549 cells assessed as cell growth inhibition incubated for 72 hrs by CCK-8 assay. Type of experiment: functional, cell-based. The settings on record: BT-549, 72 h.
The test system of experiment [20] is Hs-578T. The experiment in a line: Anticancer activity against human Hs-578T cells assessed as cell growth inhibition incubated for 72 hrs by CCK-8 assay. The experiment is classed as functional, cell-based.
Experiment [21] concerns HCC1937. Nature of the experiment: Anticancer activity against human HCC1937 cells assessed as cell growth inhibition incubated for 24 hrs by MTS assay. The settings on record: HCC1937, 24 h. Type of experiment: functional, cell-based.
For experiment [22], the system named is HCC1806. The experiment in a line: Anticancer activity against human HCC1806 cells assessed as cell growth inhibition incubated for 24 hrs by MTS assay. The settings on record: HCC1806, 24 h. The experiment is classed as functional, cell-based.
The test system of experiment [23] is HCC1806. The experiment in a line: Anticancer activity against human HCC1806 cells assessed as cell growth inhibition incubated for 72 hrs by CellTiter-Blue assay. The settings on record: HCC1806, 72 h. Type of experiment: functional, cell-based.
Experiment [24] deals with MDA-MB-231. The experiment in a line: Anticancer activity against human MDA-MB-231 cells assessed as cell growth inhibition incubated for 72 hrs by CellTiter-Blue assay. The experiment is classed as functional, cell-based. The settings on record: MDA-MB-231, 72 h.
For experiment [25], the system named is HCC38. Nature of the experiment: Anticancer activity against human HCC38 cells assessed as cell growth inhibition. The experiment is classed as functional, cell-based.
In experiment [26] the test system is HCC1937. The experiment in a line: Anticancer activity against human HCC1937 cells assessed as cell growth inhibition. The experiment is classed as functional, cell-based.
The subject of experiment [27] is MDA-MB-468. Nature of the experiment: Anticancer activity against human MDA-MB-468 cells assessed as cell growth inhibition. The experiment is classed as functional, cell-based.
The next experiment deals with MCF7. Nature of the experiment: Anticancer activity against human MCF7 cells assessed as cell growth inhibition. Type of experiment: functional, cell-based.
The next experiment concerns MDA-MB-453. The experiment in a line: Anticancer activity against human MDA-MB-453 cells assessed as cell growth inhibition. The experiment is classed as functional, cell-based.
In experiment [28] the test system is HCC38. Nature of the experiment: Anticancer activity against human HCC38 cells assessed as cell growth inhibition by crystal violet staining based haemocytometer analysis. Type of experiment: functional.
In experiment [29] the test system is MDA-MB-231. Nature of the experiment: Anticancer activity against human MDA-MB-231 cells assessed as cell growth inhibition by crystal violet staining based haemocytometer analysis. Type of experiment: functional.
The subject of the next experiment is MDA-MB-436. The experiment in a line: Anticancer activity against human MDA-MB-436 cells assessed as cell growth inhibition by crystal violet staining based haemocytometer analysis. The experiment is classed as functional.
Another experiment deals with Thioredoxin (Homo sapiens, UniProt P10599). Nature of the experiment: Inhibition of human TXN incubated for 30 mins by fluorescence based plate reader analysis.
Thioredoxin, sequence (P10599 whole entry): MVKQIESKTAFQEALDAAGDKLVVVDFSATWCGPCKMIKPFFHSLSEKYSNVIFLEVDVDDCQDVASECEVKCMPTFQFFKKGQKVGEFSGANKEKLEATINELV

Proto-oncogene tyrosine-protein kinase Src, sequence (P12931 2-536 limits assumed): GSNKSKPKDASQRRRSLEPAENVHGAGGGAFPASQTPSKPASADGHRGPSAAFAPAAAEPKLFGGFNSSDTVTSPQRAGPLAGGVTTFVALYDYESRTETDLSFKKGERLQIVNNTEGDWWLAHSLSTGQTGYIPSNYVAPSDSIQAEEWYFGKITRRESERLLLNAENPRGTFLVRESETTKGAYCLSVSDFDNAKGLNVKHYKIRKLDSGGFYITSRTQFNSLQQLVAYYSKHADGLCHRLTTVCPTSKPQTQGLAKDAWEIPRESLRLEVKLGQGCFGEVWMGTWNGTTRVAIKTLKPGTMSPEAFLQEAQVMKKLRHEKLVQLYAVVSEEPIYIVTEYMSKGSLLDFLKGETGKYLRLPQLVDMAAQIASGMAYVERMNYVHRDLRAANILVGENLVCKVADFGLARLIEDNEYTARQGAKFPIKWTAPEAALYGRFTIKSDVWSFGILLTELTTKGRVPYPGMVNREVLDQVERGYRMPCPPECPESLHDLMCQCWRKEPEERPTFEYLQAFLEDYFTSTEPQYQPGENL

The IC50 is the concentration needed to halve the response being measured. `Cc1nc2c(c(C)c1O)CC(=O)N2` registered an IC50 in experiment [1] of 3230 nM.
Turning to `CCOC(=O)c1cnn(-c2ccc(NC(=O)C(Cl)=C(Cl)Cl)cc2)c1C(F)(F)F`, the IC50 in the experiment on MDA-MB-231 [2] was found to be 1000 nM.
Consider `Nc1ccccc1NC(=O)c1ccc(CNC(=O)OCc2cccnc2)cc1` [ENTINOSTAT], for which the IC50 in the experiment with Hs-578T [3] and in the experiment on MDA-MB-231 [4] was 1000 nM each time.
Turning to `O=C(NC[C@H](O)CN1CCc2ccccc2C1)c1cc(NC2COC2)ncn1`, the IC50 in the experiment with MDA-MB-468 [5] came to 1000 nM; in the experiment with HCC38 [6], 5000 nM; with MDA-MB-231 [7] it was 60000 nM.
Compound `CN[C@@H](C)C(=O)N[C@H](C(=O)N1CCC[C@H]1c1nc(C(=O)c2ccc(F)cc2)cs1)C1CCCCC1` [LCL-161] showed an IC50 in experiment [8] of 0.4 nM.
With `CCNc1cc(O)c2c(c1)/C=C/C[C@H](O)[C@H](O)C(=O)/C=C\[C@@H](C)[C@H](C)OC2=O` [E-6201], the IC50 stood at 10100 nM in the experiment on BT-20; 2360 nM in the experiment on SUM-159-PT; 2500 nM in the experiment with HCC1806 [9]; 3730 nM in the experiment with HCC1937 [10]; 210 nM in the experiment with SUM149PT; 250 nM in the experiment on MDA-MB-231 [11]. For the same compound, the IC50 with HCC70 was 8790 nM.
As to `Cc1sc2c(c1C)C(c1ccc(Cl)cc1)=N[C@@H](CC(=O)NCCCCCCCCCCNC(=O)C[C@@H]1N=C(c3ccc(Cl)cc3)c3c(sc(C)c3C)-n3c(C)nnc31)c1nnc(C)n1-2`, the IC50 in the experiment on HCC1806 [12] stood at 19 nM; in the experiment on BT-549 [13] it was 6.8 nM; in the experiment on MDA-MB-231 [14], 10.3 nM; in the experiment with Hs-578T [15], 4.1 nM; in the experiment on HCC38 [16], 15 nM.
Regarding `CCN(CC)CCCCNc1ncc2cc(-c3cc(OC)cc(OC)c3)c(NC(=O)NC(C)(C)C)nc2n1` [PD-173074], the IC50 with SUM185PE is 20 nM.
In the case of `O=C1COc2c(CCNCCN(C(=O)CCNCCc3ccc(Cl)c(Cl)c3)C3CCCCC3)ccc(O)c2N1`, the IC50 in experiment [17] is 20000 nM.
`CO[C@H]1/C=C\C=C(/C)C(=O)NC2=CC(=O)C(NCCN(C)C)=C(C[C@@H](C)C[C@H](OC)[C@H](O)[C@@H](C)/C=C(\C)[C@@H]1OC(N)=O)C2=O` [ALVESPIMYCIN]: the IC50 turned out to be 45700 nM with MDA-MB-231 [18], 17100 nM in the experiment on BT-549 [19] and 8.4 nM with Hs-578T [20].
As to `COC(=O)[C@@H](O)[C@](O)(CCC(C)C)C(=O)O[C@@H]1C(OC)=C[C@]23CCCN2CCc2cc4c(cc2[C@H]13)OCO4`, the IC50 in the experiment with HCC1937 [21] was 500 nM; in the experiment with HCC1806 [22] it was 100 nM.
Consider `O=C(Cc1cccc(OC(F)(F)F)c1)Nc1ccc(CCCCc2nnc(NC(=O)Cc3ccccn3)s2)nn1`, for which the IC50 with HCC1806 [23] was determined as 100 nM; with MDA-MB-231 [24], 50 nM.
For orientation: EC50 means the concentration that produces a half-maximal response. Take `CCN(CC)c1ccc(CNc2ccc(Cl)cc2)cc1`: the EC50 in the experiment with HCC38 [25] was found to be 1200 nM; in the experiment with HCC1937 [26], 440 nM; in the experiment with MDA-MB-468 [27], 2500 nM; in the experiment with MCF7 it was 770 nM; in the experiment on MDA-MB-453, 2510 nM.
Take `CC(=O)c1c(C)c2cnc(Nc3ccc(N4CCNCC4)cn3)nc2n(C2CCCC2)c1=O` [PALBOCICLIB]: the EC50 came to 1400 nM with HCC38 [28], 300 nM in the experiment with MDA-MB-231 [29] and 5000 nM in the experiment on MDA-MB-436.
Turning to `Fc1ccc(-c2ccc(Nc3nc(Cl)nc(Cl)n3)cc2)cc1`, the IC50 on Thioredoxin came to 10000 nM.
